Source: patent US20240391965A1, “STAPLED ANTIMICROBIAL PEPTIDES (STAMPS) AND USES THEREOF” (Lytica Therapeutics, Inc., priority 2021, published 2024)
≈ marks a conversion by molar mass, not a printed value. Starred links: 1 amine or outer side, 2 acyl side, 3 side chain; linkers in the order of their positions; H or OH if unused. Positions of bridges follow the written chain, without caps; N, C: chain ends. Residues, ends and D or L forms follow the SMILES beside them. 2,2'Bipyridine(5,5'-diCH2) = c1cc(-c2ccc(C[*:2])cn2)ncc1C[*:1]; Naphthalene(2,6-diCH2) = c1cc2cc(C[*:2])ccc2cc1C[*:1]; mXylylene = c1cc(C[*:1])cc(C[*:2])c1; pXylylene = c1cc(C[*:2])ccc1C[*:1]; X1 = C(=CC[*:2])C[*:1]

Columns and labels:
[1] = tested on: Acinetobacter baumannii (A. baumannii); type: cell-based; conditions: microbroth dilution, 20-24 hours at 37° C.
Summary of the method: (§1)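 Broth microdilution adapted from CLSI in Mueller-Hinton broth or cation-adjusted MHB II; overnight cultures at 37 °C were regrown 3-4 h, then added to serially diluted peptide at a final 5×10^5 CFU/ml. After 20-24 h at 37 °C, MIC was taken as the lowest peptide concentration with no visible growth.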

[2] = tested on: Escherichia coli (E. coli); type: cell-based; conditions: microbroth dilution, 20-24 hours at 37° C.
Summary of the method: as §1

[3] = tested on: Klebsiella pneumoniae (K. pneumoniae); type: cell-based; conditions: microbroth dilution, 20-24 hours at 37° C.
Summary of the method: as §1

[4] = tested on: Pseudomonas aeruginosa (P. aeruginosa); type: cell-based; conditions: microbroth dilution, 20-24 hours at 37° C.
Summary of the method: as §1

[5] = tested on: Staphylococcus aureus (S. aureus); type: cell-based; conditions: microbroth dilution, 20-24 hours at 37° C.
Summary of the method: as §1

[6] = 90 minute cytotoxicity assay (LDH release), renal toxicity; type: cell-based; conditions: 90 minutes of incubation, LDH release; read-out: Inhibitory Concentration at 50% Cytotoxicity (IC50) Human Renal Proximal Tubule Epithelial Cells (RPTEC)
Summary of the method: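 RPTEC plated overnight, given fresh medium, then exposed to serial peptide dilutions or vehicle for 90 min at 37° C. Medium LDH measured by 10 min reagent incubation and absorbance at 490 nm.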

[7] = 48 hours cytotoxicity assay (CellTiter-Glo), liver toxicity; type: cell-based, human; conditions: 48 hours of incubation, CellTiter-Glo; read-out: Inhibitory Concentration at 50% Cytotoxicity (IC50) Human Liver Cells (HepG2)
Summary of the method: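 HepG2 cells in EMEM with 10% FBS, allowed to attach 4 h, then exposed to serially diluted StAMPs or vehicle for 48 h at 37 °C. Viability read by CellTiter-Glo luminescence.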

| SMILES | Minimum Inhibitory Concentration (MIC) A. baumannii [1] | Minimum Inhibitory Concentration (MIC) E. coli [2] | Minimum Inhibitory Concentration (MIC) K. pneumoniae [3] | Minimum Inhibitory Concentration (MIC) P. aeruginosa [4] | Minimum Inhibitory Concentration (MIC) S. aureus [5] | IC50 [6] | IC50 [7] |
| --- | --- | --- | --- | --- | --- | --- | --- |
| CC[C@H](C)[C@H](NC(=O)CN)C(=O)N[C@@H](Cc1ccccc1)C(=O)N[C@@H](CO)C(=O)N[C@@H](CCCCN)C(=O)N[C@@H](CC(C)C)C(=O)N[C@@H](C)C(=O)NCC(=O)N[C@@H](CCCCN)C(=O)N[C@@H](CCCCN)C(=O)N[C@H](C(=O)N[C@@H](CCCCN)C(=O)N[C@@H](CC(N)=O)C(=O)N[C@@H](CC(C)C)C(=O)N[C@H]1CSCc2cccc(c2)CSC[C@@H](C(=O)N[C@@H](CCCCN)C(=O)NCC(N)=O)NC(=O)CNC(=O)[C@H](CO)NC(=O)[C@H]([C@@H](C)CC)NC1=O)[C@@H](C)CC [compound 29] (H-GIFSKLAGKKIKNLCISGCKG-NH2; linker 15-19 via mXylylene) | 16 µg/mL | 64 µg/mL | >64 µg/mL | 64 µg/mL | >64 µg/mL | > 200 µg/mL | ~200 µg/mL (≈ 88.2 µM) |
| CC[C@H](C)[C@H](NC(=O)CN)C(=O)N[C@@H](Cc1ccccc1)C(=O)N[C@H]1CSCc2ccc(nc2)-c2ccc(cn2)CSC[C@@H](C(=O)N[C@@H](CCCCN)C(=O)N[C@@H](CC(N)=O)C(=O)N[C@@H](CC(C)C)C(=O)N[C@@H](CC(C)C)C(=O)N[C@H](C(=O)N[C@@H](CO)C(=O)NCC(=O)N[C@@H](CC(C)C)C(=O)N[C@@H](CCCCN)C(=O)NCC(N)=O)[C@@H](C)CC)NC(=O)[C@H](CCCCN)NC(=O)[C@H](CCCCN)NC(=O)CNC(=O)[C@H](C)NC(=O)[C@H](CC(C)C)NC(=O)[C@H](CCCCN)NC1=O [compound 57] (H-GIFCKLAGKKCKNLLISGLKG-NH2; linker 4-11 via 2,2'Bipyridine(5,5'-diCH2); N-terminus assumed) | 16 µg/mL | 16 µg/mL | >64 µg/mL | >64 µg/mL | >64 µg/mL | > 200 µg/mL | 103 µg/mL (≈ 43.4 µM) |
| CC[C@H](C)[C@H](NC(=O)CN)C(=O)N[C@@H](Cc1ccccc1)C(=O)N[C@@H](CO)C(=O)N[C@@H](CCCCN)C(=O)N[C@@H](CC(C)C)C(=O)N[C@@H](C)C(=O)NCC(=O)N[C@@H](CCCCN)C(=O)N[C@H]1CSCC=CCSC[C@@H](C(=O)N[C@@H](CC(C)C)C(=O)N[C@H](C(=O)N[C@@H](CO)C(=O)NCC(=O)N[C@@H](CC(C)C)C(=O)N[C@@H](CCCCN)C(=O)NCC(N)=O)[C@@H](C)CC)NC(=O)[C@H](CC(N)=O)NC(=O)[C@H](CCCCN)NC(=O)[C@H]([C@@H](C)CC)NC1=O [compound 16] (H-GIFSKLAGKCIKNCLISGLKG-NH2; linker 10-14 via X1) | 64 µg/mL | 32 µg/mL | >64 µg/mL | >64 µg/mL | >64 µg/mL | > 200 µg/mL | > 200 µg/mL |
| CC[C@H](C)[C@H](NC(=O)[C@H](CC(C)C)NC(=O)[C@H](CC(C)C)NC(=O)[C@H](CC(N)=O)NC(=O)[C@H](CCCCN)NC(=O)[C@@H](NC(=O)[C@H](CCCCN)NC(=O)[C@H](CCCCN)NC(=O)[C@@H]1CSCc2ccc3cc(ccc3c2)CSC[C@H](N)C(=O)N[C@@H]([C@@H](C)CC)C(=O)N[C@@H](Cc2ccccc2)C(=O)N[C@@H](CO)C(=O)N[C@@H](CCCCN)C(=O)N[C@@H](CC(C)C)C(=O)N[C@@H](C)C(=O)N1)[C@@H](C)CC)C(=O)N[C@@H](CO)C(=O)NCC(=O)N[C@@H](CC(C)C)C(=O)N[C@@H](CCCCN)C(=O)NCC(N)=O [compound 50] (H-CIFSKLACKKIKNLLISGLKG-NH2; linker 1-8 via Naphthalene(2,6-diCH2); N-terminus assumed) | 8 µg/mL | 16 µg/mL | 32 µg/mL | >64 µg/mL | 64 µg/mL | 17 µg/mL (≈ 7 µM) | 103 µg/mL (≈ 42.4 µM) |
| CC[C@H](C)[C@H](NC(=O)CN)C(=O)N[C@@H](Cc1ccccc1)C(=O)N[C@H]1CSCc2ccc3cc(ccc3c2)CSC[C@@H](C(=O)N[C@@H](CCCCN)C(=O)N[C@@H](CC(N)=O)C(=O)N[C@@H](CC(C)C)C(=O)N[C@@H](CC(C)C)C(=O)N[C@H](C(=O)N[C@@H](CO)C(=O)NCC(=O)N[C@@H](CC(C)C)C(=O)N[C@@H](CCCCN)C(=O)NCC(N)=O)[C@@H](C)CC)NC(=O)[C@H](CCCCN)NC(=O)[C@H](CCCCN)NC(=O)CNC(=O)[C@H](C)NC(=O)[C@H](CC(C)C)NC(=O)[C@H](CCCCN)NC1=O [compound 58] (H-GIFCKLAGKKCKNLLISGLKG-NH2; linker 4-11 via Naphthalene(2,6-diCH2); N-terminus assumed) | 4 µg/mL | 16 µg/mL | 32 µg/mL | 64 µg/mL | >64 µg/mL | 131 µg/mL (≈ 55.9 µM) | 51 µg/mL (≈ 21.8 µM) |
| CC[C@H](C)[C@H](NC(=O)CN)C(=O)N[C@@H](Cc1ccccc1)C(=O)N[C@@H](CO)C(=O)N[C@@H](CCCCN)C(=O)N[C@@H](CC(C)C)C(=O)N[C@@H](C)C(=O)NCC(=O)N[C@@H](CCCCN)C(=O)N[C@@H](CCCCN)C(=O)N[C@H](C(=O)N[C@@H](CCCCN)C(=O)N[C@@H](CC(N)=O)C(=O)N[C@@H](CC(C)C)C(=O)N[C@H]1CSCc2ccc(cc2)CSC[C@@H](C(=O)N[C@@H](CCCCN)C(=O)NCC(N)=O)NC(=O)CNC(=O)[C@H](CO)NC(=O)[C@H]([C@@H](C)CC)NC1=O)[C@@H](C)CC [compound 30] (H-GIFSKLAGKKIKNLCISGCKG-NH2; linker 15-19 via pXylylene) | 16 µg/mL | 64 µg/mL | >64 µg/mL | 64 µg/mL | >64 µg/mL | > 200 µg/mL | > 200 µg/mL |
| CC[C@H](C)[C@H](NC(=O)CN)C(=O)N[C@@H](Cc1ccccc1)C(=O)N[C@@H](CO)C(=O)N[C@@H](CCCCN)C(=O)N[C@@H](CC(C)C)C(=O)N[C@H]1CSCc2cccc(c2)CSC[C@@H](C(=O)N[C@@H](CCCCN)C(=O)N[C@@H](CC(N)=O)C(=O)N[C@@H](CC(C)C)C(=O)N[C@@H](CC(C)C)C(=O)N[C@H](C(=O)N[C@@H](CO)C(=O)NCC(=O)N[C@@H](CC(C)C)C(=O)N[C@@H](CCCCN)C(=O)NCC(N)=O)[C@@H](C)CC)NC(=O)[C@H](CCCCN)NC(=O)[C@H](CCCCN)NC(=O)CNC1=O [compound 2] (H-GIFSKLCGKKCKNLLISGLKG-NH2; linker 7-11 via mXylylene) | 4 µg/mL | 2 µg/mL | 16 µg/mL | 8 µg/mL | >64 µg/mL | 101 µg/mL (≈ 43.7 µM) | 97 µg/mL (≈ 42 µM) |
| CC[C@H](C)[C@H](NC(=O)CN)C(=O)N[C@@H](Cc1ccccc1)C(=O)N[C@@H](CO)C(=O)N[C@@H](CCCCN)C(=O)N[C@@H](CC(C)C)C(=O)N[C@@H](C)C(=O)NCC(=O)N[C@@H](CCCCN)C(=O)N[C@H]1CSCc2ccc(cc2)CSC[C@@H](C(=O)N[C@@H](CC(C)C)C(=O)N[C@H](C(=O)N[C@@H](CO)C(=O)NCC(=O)N[C@@H](CC(C)C)C(=O)N[C@@H](CCCCN)C(=O)NCC(N)=O)[C@@H](C)CC)NC(=O)[C@H](CC(N)=O)NC(=O)[C@H](CCCCN)NC(=O)[C@H]([C@@H](C)CC)NC1=O [compound 15] (H-GIFSKLAGKCIKNCLISGLKG-NH2; linker 10-14 via pXylylene) | 16 µg/mL | 8 µg/mL | 32 µg/mL | 32 µg/mL | >64 µg/mL | 82 µg/mL (≈ 36.4 µM) | 88 µg/mL (≈ 39.1 µM) |
